Results from US20210227837A1, “NATAMYCIN FOR THE PRESERVATION OF A BAKED PRODUCT” (DSM IP ASSETS B.V., priority 2018, published 2021).

What was measured:
[1] = neutral pH values; cited from earlier work
[2] = Stability of natamycin solutions in aqueous potassium sorbate (residual natamycin by HPLC); format: physicochemical
Description: (§1) Natamycin concentrations were determined using […] as follows. • HPLC system: Waters iClass • Column: Waters Symmetry C18, 4.6×150 mm, 3.5 μm, Part No. WAT200632, Column no. 1483, Lot no. 0198313011 • Column temperature: 25° C. • Eluent A: 50 mM ammonium acetate buffer pH 5.8 (with acetic acid) • Eluent B: Acetonitrile • Wash: 60% acetonitrile/40% water (v/v) • Injection volume: 10 μl • Injector temperature: 10° C. in darkness • Flow: 1 mL/min
(§2) The reverse phase HPLC uses a UV detector to determine the residual concentration of natamycin at 303 nm. A set of standard dilutions containing subsequently increasing concentrations of natamycin in methanol was made and from these a calibration curve was obtained. The concentration of natamycin should not exceed a concentration of 88 mg/L. Generally, the dilutions contained 20 mg of sample and […] of methanol.
To obtain a 1% solution, 33 mg of natamycin was used instead of 0.2 g and heating during dissolution was omitted, resulting in a salt/natamycin ratio of 45 (w/w) or 200 (mole/mole). Samples of the mixtures were analyzed over time by HPLC for residual natamycin concentration. The shelf life test of the mixtures was done by storage at low temperatures (4-7° C.) and ambient temperatures (20-24° C.).

[3] = Stability of natamycin solutions in propylene glycol and aqueous sodium acetate or potassium acetate (residual natamycin by HPLC); format: physicochemical; conditions: 4-7° C., natamycin 1%
Description: as §1, §2
A 4.4 M solution of sodium acetate or a 5 M solution of potassium acetate in water (3 g) was mixed with propylene glycol (16 g) and natamycin (0.2 g) and heated until a final temperature of 105° C. to give a solution with a natamycin concentration of 1% (w/w). […] Samples of the mixtures were analyzed over time by HPLC for residual natamycin concentration. The shelf life test of the mixtures was done by storage at low temperatures (4-7° C.) and ambient temperatures (20-23° C.).

[4] = Stability of natamycin solutions in propylene glycol and aqueous potassium formate (residual natamycin by HPLC); format: physicochemical; conditions: natamycin 1% (w/w)
Description: as §1, §2
A 3.5 M solution of potassium formate in water (15.17 g) was mixed with propylene glycol (80.32 g) and natamycin (1.059 g) and heated for 2.57 h until a final temperature of 105° C. A second batch was prepared by mixing a 3.5 M solution of potassium formate in water (15.07 g) with propylene glycol (80.5 g) and natamycin (1.032 g) and heating for 3.25 h until a final temperature of 105° C. Both batches were filtered over a 2 μm filter and combined to give a solution with a natamycin concentration of 1.08% (w/w). […] Samples of the mixtures were analyzed over time by HPLC for residual natamycin concentration. The shelf life test of the mixtures was done by storage at low temperatures (4-7° C.) and ambient temperatures (20-24° C.).

Question: What does the source list for `C[C@@H]1C/C=C/C=C/C=C/C=C/[C@H](O[C@@H]2O[C@H](C)[C@@H](O)[C@H](N)[C@@H]2O)C[C@@H]2O[C@](O)(C[C@@H](O)C[C@H]3O[C@@H]3/C=C/C(=O)O1)C[C@H](O)[C@H]2C(=O)O` [natamycin]?
Answer: solubility in water [1]: around 0.04 g/kg; Residual natamycin (%) ([2]; 4-7° C., pH 9.7, natamycin 6% (w/w), day 0): 103%; Residual natamycin (%) ([2]; 4-7° C., pH 9.7, natamycin 6% (w/w), day 5): 103%; Residual natamycin (%) ([2]; 4-7° C., pH 9.7, natamycin 6% (w/w), day 6): 99%; Residual natamycin (%) ([2]; 4-7° C., pH 9.7, natamycin 6% (w/w), day 12): 100%; Residual natamycin (%) ([2]; 4-7° C., pH 9.7, natamycin 6% (w/w), day 31): 92%; Residual natamycin (%) ([2]; 4-7° C., pH 9.7, natamycin 6% (w/w), day 42): 92%; Residual natamycin (%) ([2]; 4-7° C., pH 9.7, natamycin 6% (w/w), day 49): 88%; Residual natamycin (%) ([2]; 4-7° C., pH 9.7, natamycin 6% (w/w), day 69): 80%; Residual natamycin (%) ([2]; 20-24° C., pH 9.6, natamycin 6% (w/w), day 0): 105%; Residual natamycin (%) ([2]; 20-24° C., pH 9.6, natamycin 6% (w/w), day 2): 104%; Residual natamycin (%) ([2]; 20-24° C., pH 9.6, natamycin 6% (w/w), day 6): 98%; Residual natamycin (%) ([2]; 20-24° C., pH 9.6, natamycin 6% (w/w), day 8): 98%; Residual natamycin (%) ([2]; 20-24° C., pH 9.6, natamycin 6% (w/w), day 15): 97%; Residual natamycin (%) ([2]; 20-24° C., pH 9.6, natamycin 6% (w/w), day 20): 95%; Residual natamycin (%) ([2]; 20-24° C., pH 9.6, natamycin 6% (w/w), day 23): 93%; Residual natamycin (%) ([2]; 20-24° C., pH 9.6, natamycin 6% (w/w), day 34): 81%; Residual natamycin (%) ([2]; 20-24° C., pH 9.6, natamycin 6% (w/w), day 65): 73%; Residual natamycin (%) ([2]; 20-24° C., pH 9.9, natamycin 1% (w/w), day 0): 104%; Residual natamycin (%) ([2]; 20-24° C., pH 9.9, natamycin 1% (w/w), day 2): 101%; Residual natamycin (%) ([2]; 20-24° C., pH 9.9, natamycin 1% (w/w), day 6): 97%; Residual natamycin (%) ([2]; 20-24° C., pH 9.9, natamycin 1% (w/w), day 8): 94%; Residual natamycin (%) ([2]; 20-24° C., pH 9.9, natamycin 1% (w/w), day 15): 88%; Residual natamycin (%) ([2]; 20-24° C., pH 9.9, natamycin 1% (w/w), day 20): 79%; Residual natamycin (%) ([2]; 20-24° C., pH 9.9, natamycin 1% (w/w), day 23): 80%; Residual natamycin (%) ([2]; 20-24° C., pH 9.9, natamycin 1% (w/w), day 34): 62%; Residual natamycin (%) ([2]; 20-24° C., pH 9.9, natamycin 1% (w/w), day 65): 45%; Residual natamycin (%) ([3]; Blank (absence of sodium), propylene glycol, pH 6.2, day 0): 80%; Residual natamycin (%) ([3]; Blank (absence of sodium), propylene glycol, pH 6.2, day 12): 43%; Residual natamycin (%) ([3]; Blank (absence of sodium), propylene glycol, pH 6.2, day 23): 22%; Residual natamycin (%) ([3]; Blank (absence of sodium), propylene glycol, pH 6.2, day 30): 12%; Residual natamycin (%) ([3]; Blank (absence of sodium), propylene glycol, pH 6.2, day 31): 7%; Residual natamycin (%) ([3]; Blank (absence of sodium), propylene glycol, pH 6.2, day 50): 1%; Residual natamycin (%) ([3]; propylene glycol + aqueous sodium acetate, pH 8.2, day 0): 98%; Residual natamycin (%) ([3]; propylene glycol + aqueous sodium acetate, pH 8.2, day 31): 72%; Residual natamycin (%) ([3]; propylene glycol + aqueous sodium acetate, pH 8.2, day 51): 58%; Residual natamycin (%) ([4]; Blank (water instead of potassium formate), propylene glycol, 4-7° C., pH 6.2, day 0): 80%; Residual natamycin (%) ([4]; Blank (water instead of potassium formate), propylene glycol, 4-7° C., pH 6.2, day 14): 43%; Residual natamycin (%) ([4]; Blank (water instead of potassium formate), propylene glycol, 4-7° C., pH 6.2, day 23): 22%; Residual natamycin (%) ([4]; Blank (water instead of potassium formate), propylene glycol, 4-7° C., pH 6.2, day 32): 12%; Residual natamycin (%) ([4]; Blank (water instead of potassium formate), propylene glycol, 4-7° C., pH 6.2, day 35): 7%; Residual natamycin (%) ([4]; Blank (water instead of potassium formate), propylene glycol, 20-24° C., pH 6.3, day 0): 83%; Residual natamycin (%) ([4]; Blank (water instead of potassium formate), propylene glycol, 20-24° C., pH 6.3, day 5): 72%; Residual natamycin (%) ([4]; Blank (water instead of potassium formate), propylene glycol, 20-24° C., pH 6.3, day 7): 66%; Residual natamycin (%) ([4]; Blank (water instead of potassium formate), propylene glycol, 20-24° C., pH 6.3, day 12): 55%; Residual natamycin (%) ([4]; Blank (water instead of potassium formate), propylene glycol, 20-24° C., pH 6.3, day 14): 52%; Residual natamycin (%) ([4]; Blank (water instead of potassium formate), propylene glycol, 20-24° C., pH 6.3, day 25): 31%; Residual natamycin (%) ([4]; Blank (water instead of potassium formate), propylene glycol, 20-24° C., pH 6.3, day 27): 25%; Residual natamycin (%) ([4]; Blank (water instead of potassium formate), propylene glycol, 20-24° C., pH 6.3, day 43): 18%; Residual natamycin (%) ([4]; Blank (water instead of potassium formate), propylene glycol, 20-24° C., pH 6.3, day 74): 6%; Residual natamycin (%) ([4]; propylene glycol + aqueous potassium formate, 4-7° C., pH 9.5, day 0): 111%; Residual natamycin (%) ([4]; propylene glycol + aqueous potassium formate, 4-7° C., pH 9.5, day 5): 114%; Residual natamycin (%) ([4]; propylene glycol + aqueous potassium formate, 4-7° C., pH 9.5, day 14): 114%; Residual natamycin (%) ([4]; propylene glycol + aqueous potassium formate, 4-7° C., pH 9.5, day 23): 112%; Residual natamycin (%) ([4]; propylene glycol + aqueous potassium formate, 4-7° C., pH 9.5, day 43): 108%; Residual natamycin (%) ([4]; propylene glycol + aqueous potassium formate, 4-7° C., pH 9.8, day 0): 96%; Residual natamycin (%) ([4]; propylene glycol + aqueous potassium formate, 4-7° C., pH 9.8, day 4): 96%; Residual natamycin (%) ([4]; propylene glycol + aqueous potassium formate, 4-7° C., pH 9.8, day 10): 97%; Residual natamycin (%) ([4]; propylene glycol + aqueous potassium formate, 4-7° C., pH 9.8, day 15): 88%; Residual natamycin (%) ([4]; propylene glycol + aqueous potassium formate, 4-7° C., pH 9.8, day 18): 92%; Residual natamycin (%) ([4]; propylene glycol + aqueous potassium formate, 4-7° C., pH 9.8, day 25): 91%; Residual natamycin (%) ([4]; propylene glycol + aqueous potassium formate, 4-7° C., pH 9.8, day 42): 88%; Residual natamycin (%) ([4]; propylene glycol + aqueous potassium formate, 4-7° C., pH 9.8, day 53): 90%; Residual natamycin (%) ([4]; propylene glycol + aqueous potassium formate, 4-7° C., pH 9.8, day 60): 96%; Residual natamycin (%) ([4]; propylene glycol + aqueous potassium formate, 4-7° C., pH 9.8, day 80): 87%; Residual natamycin (%) ([4]; propylene glycol + aqueous potassium formate, 4-7° C., pH lowered to 5.9 by formic acid, day 0): 83%; Residual natamycin (%) ([4]; propylene glycol + aqueous potassium formate, 4-7° C., pH lowered to 5.9 by formic acid, day 5): 66%; Residual natamycin (%) ([4]; propylene glycol + aqueous potassium formate, 4-7° C., pH lowered to 5.9 by formic acid, day 14): 45%; Residual natamycin (%) ([4]; propylene glycol + aqueous potassium formate, 4-7° C., pH lowered to 5.9 by formic acid, day 23): 21%; Residual natamycin (%) ([4]; propylene glycol + aqueous potassium formate, 4-7° C., pH lowered to 5.9 by formic acid, day 43): 2%; Residual natamycin (%) ([4]; propylene glycol + aqueous potassium formate, 4-7° C., pH lowered to 8.8 by formic acid, day 0): 94%; Residual natamycin (%) ([4]; propylene glycol + aqueous potassium formate, 4-7° C., pH lowered to 8.8 by formic acid, day 5): 96%; Residual natamycin (%) ([4]; propylene glycol + aqueous potassium formate, 4-7° C., pH lowered to 8.8 by formic acid, day 14): 94%; Residual natamycin (%) ([4]; propylene glycol + aqueous potassium formate, 4-7° C., pH lowered to 8.8 by formic acid, day 23): 93%; Residual natamycin (%) ([4]; propylene glycol + aqueous potassium formate, 4-7° C., pH lowered to 8.8 by formic acid, day 43): 86%; Residual natamycin (%) ([4]; propylene glycol + aqueous potassium formate, 4-7° C., pH lowered to 9.0 by formic acid, day 0): 93%; Residual natamycin (%) ([4]; propylene glycol + aqueous potassium formate, 4-7° C., pH lowered to 9.0 by formic acid, day 5): 97%; Residual natamycin (%) ([4]; propylene glycol + aqueous potassium formate, 4-7° C., pH lowered to 9.0 by formic acid, day 14): 94%; Residual natamycin (%) ([4]; propylene glycol + aqueous potassium formate, 4-7° C., pH lowered to 9.0 by formic acid, day 23): 93%; Residual natamycin (%) ([4]; propylene glycol + aqueous potassium formate, 4-7° C., pH lowered to 9.0 by formic acid, day 43): 92%; Residual natamycin (%) ([4]; propylene glycol + aqueous potassium formate, 20-24° C., pH 9.8, day 0): 92%; Residual natamycin (%) ([4]; propylene glycol + aqueous potassium formate, 20-24° C., pH 9.8, day 5): 95%; Residual natamycin (%) ([4]; propylene glycol + aqueous potassium formate, 20-24° C., pH 9.8, day 7): 95%; Residual natamycin (%) ([4]; propylene glycol + aqueous potassium formate, 20-24° C., pH 9.8, day 9): 92%; Residual natamycin (%) ([4]; propylene glycol + aqueous potassium formate, 20-24° C., pH 9.8, day 12): 87%; Residual natamycin (%) ([4]; propylene glycol + aqueous potassium formate, 20-24° C., pH 9.8, day 18): 92%; Residual natamycin (%) ([4]; propylene glycol + aqueous potassium formate, 20-24° C., pH 9.8, day 20): 87%; Residual natamycin (%) ([4]; propylene glycol + aqueous potassium formate, 20-24° C., pH 9.8, day 27): 86%; Residual natamycin (%) ([4]; propylene glycol + aqueous potassium formate, 20-24° C., pH 9.8, day 32): 82%; Residual natamycin (%) ([4]; propylene glycol + aqueous potassium formate, 20-24° C., pH 9.8, day 35): 83%; Residual natamycin (%) ([4]; propylene glycol + aqueous potassium formate, 20-24° C., pH 9.8, day 43): 80%; Residual natamycin (%) ([4]; propylene glycol + aqueous potassium formate, 20-24° C., pH 9.8, day 74): 69%
